Assay results published in patent US20240140986A1, “SYNTHETIC URSOLIC ACID DERIVATIVES AND METHODS OF USE THEREOF” (REATA PHARMACEUTICALS, INC., priority 2021, published 2024).
Read-outs that look alike come from different tables or passages of the source.

Key:
[1] = tested on: Nrf2 / ARE-dependent luciferase in AREc32 reporter cell line; assay: AREc32 luciferase reporter activation (Nrf2 induction); assay type: cell-based, human; settings: for EC (2-fold): Homo sapiens, Arec32; for Relative Avg AREc32 EC2X Relative to RTA402 (fold): ratio to RTA402
In short: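 EC2X is the concentration raising luminescence 2-fold above DMSO-treated cells, from a nonlinear-regression dose–response fit. Compounds (0.03–1000 nM) were applied for nineteen hours, starting one day after seeding 20,000 reporter cells per well. Luciferase was read with One-Glo reagent.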

[2] = tested on: IFNγ-induced NO production in RAW 264.7 cells; assay: Nitric Oxide Suppression Assay (IFNγ-induced NO, Griess nitrite readout); assay type: cell-based, mouse; settings: for IC50: Mus musculus; for Avg NO IC50 Relative to RTA402 (fold): Table 2, ratio to RTA402
In short: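 Nitrite, a surrogate for NO, was measured by Griess reagent (525 nm) and quantified from standards by linear regression, expressed as percent of DMSO plus IFNγ control to give IC50. RAW 264.7 cells had 2 h compound pretreatment, then 24 h with 20 ng/mL IFNγ; WST-1 checked viability.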

[3] = Table 2, concentration increasing luminescence 2-fold above vehicle, 19 h treatment, read-out: Avg AREc32 EC2X (nM) (Mean ± SD)
[4] = RAW264.7, Table 2, RAW 264.7 cells, 2 h pretreatment, 20 ng/mL interferon gamma 24 h, read-out: Avg NO IC50 (nM) (Mean ± SD)
[5] = Table 3, ursolic acid derivatives, read-out: Avg ARE EC-2X (nM) (Mean ± SD)
[6] = RAW264.7, Table 3, ursolic acid derivatives, read-out: Avg NO IC50 (nM) (Mean ± SD)
[7] = Table 3, oleanolic acid derivative analogs, read-out: Avg ARE EC-2X
[8] = RAW264.7, Table 3, oleanolic acid derivative analogs, read-out: Avg NO IC50

SMILES | IC50 [2, 4] [nM] | Avg NO IC50 Relative to RTA402 (fold) [2] | IC50 [2, 6] [nM] | IC50 [2, 8] [nM] | EC (2-fold) [1, 3] [nM] | Relative Avg AREc32 EC2X Relative to RTA402 (fold) ([1]; Table 2) | EC (2-fold) [1, 5] [nM] | EC (2-fold) [1, 7] [nM]
C[C@@H]1[C@H]2[C@H]3C(=O)C=C4[C@@]5(C)C=C(C#N)C(=O)C(C)(C)[C@@H]5CC[C@@]4(C)[C@]3(C)CC[C@@]2(C(=O)N2CCCC2)CC[C@H]1C [Compound T71] | 19.7 ± 1.8 | 13 ± 2.7 fold | – | – | 29.3 ± 8.1 | 2.95 ± 0.14 | – | –
C[C@@H]1[C@H]2[C@H]3C(=O)C=C4[C@@]5(C)C=C(C#N)C(=O)C(C)(C)[C@@H]5CC[C@@]4(C)[C@]3(C)CC[C@@]2(Cn2ccnc2)CC[C@H]1C [Compound T51] | 17.4 ± 2.5 | 5.79 ± 0.73 fold | 17.4 ± 2.5 | – | 15.3 ± 3.6 | 1.2 ± 0.1 | 15.3 ± 3.6 | –
CNC(=O)NC[C@]12CCC(C)(C)C[C@H]1[C@H]1C(=O)C=C3[C@@]4(C)C=C(C#N)C(=O)C(C)(C)[C@@H]4CC[C@@]3(C)[C@]1(C)CC2 [CC26, reference compound] | – | – | – | 0.5 | – | – | – | 2.75
CC1(C)CC[C@]2(CN3CCCC3=O)CC[C@]3(C)[C@H](C(=O)C=C4[C@@]5(C)C=C(C#N)C(=O)C(C)(C)[C@@H]5CC[C@]43C)[C@@H]2C1 [CC15, reference compound] | – | – | – | 1.1 | – | – | – | 6.66
C[C@@H]1[C@H]2[C@H]3C(=O)C=C4[C@@]5(C)C=C(C#N)C(=O)C(C)(C)[C@@H]5CC[C@@]4(C)[C@]3(C)CC[C@@]2(C(=O)NCC(F)F)CC[C@H]1C [Compound T87] | 26.1 ± 7.6 | 6.55 ± 2.23 fold | – | – | 23.6 ± 0.9 | 2.0 ± 0.1 | – | –
C[C@@H]1[C@H]2[C@H]3C(=O)C=C4[C@@]5(C)C=C(C#N)C(=O)C(C)(C)[C@@H]5CC[C@@]4(C)[C@]3(C)CC[C@@]2(n2cc(Br)cn2)CC[C@H]1C [Compound T63] | 58.4 ± 9.1 | 23.3 ± 10.3 fold | – | – | 76 ± 9.6 | 6.8 ± 1.1 | – | –
C[C@@H]1[C@H]2[C@H]3C(=O)C=C4[C@@]5(C)C=C(C#N)C(=O)C(C)(C)[C@@H]5CC[C@@]4(C)[C@]3(C)CC[C@@]2(c2nc(CF)no2)CC[C@H]1C [Compound T11] | 4.33 ± 1.45 | 2.10 ± 0.49 fold | – | – | 8.74 ± 2.61 | 0.685 ± 0.050 | – | –
C[C@@H]1[C@H]2[C@H]3C(=O)C=C4[C@@]5(C)C=C(C#N)C(=O)C(C)(C)[C@@H]5CC[C@@]4(C)[C@]3(C)CC[C@@]2(Cn2cnnn2)CC[C@H]1C [Compound T52] | 8.99 ± 1.84 | 3.35 ± 0.65 fold | – | – | 8.74 ± 0.51 | 0.654 ± 0.079 | – | –
CN1CCN(C[C@]23CCC(C)(C)C[C@H]2[C@H]2C(=O)C=C4[C@@]5(C)C=C(C#N)C(=O)C(C)(C)[C@@H]5CC[C@@]4(C)[C@]2(C)CC3)C1=O [CC44, reference compound] | – | – | – | 1.2 | – | – | – | 6.07

Second part, led by results:

IC50 [2, 4] [nM] | Avg NO IC50 Relative to RTA402 (fold) [2] | IC50 [2, 6] [nM] | IC50 [2, 8] [nM] | SMILES | EC (2-fold) [1, 3] [nM] | Relative Avg AREc32 EC2X Relative to RTA402 (fold) ([1]; Table 2) | EC (2-fold) [1, 5] [nM] | EC (2-fold) [1, 7] [nM]
8.79 ± 2.72 | 3.22 ± 0.99 fold | – | – | C[C@@H]1[C@H]2[C@H]3C(=O)C=C4[C@@]5(C)C=C(C#N)C(=O)C(C)(C)[C@@H]5CC[C@@]4(C)[C@]3(C)CC[C@@]2(CN2CCNC2=O)CC[C@H]1C [Compound T45] | 6.14 ± 1.47 | 0.563 ± 0.065 | – | –
57.4 ± 15.7 | 37.4 ± 3.76 fold | – | – | C[C@@H]1[C@H]2[C@H]3C(=O)C[C@@H]4[C@@]5(C)C=C(C#N)C(=O)C(C)(C)[C@@H]5CC[C@@]4(C)[C@]3(C)CC[C@@]2(CNC(=O)OC(C)(C)C)CC[C@H]1C [Compound T106] | 265 ± 21 | 28.2 ± 4.5 | – | –
26 ± 7.6 | 10.9 ± 1.6 fold | 26 ± 7.6 | – | C[C@@H]1[C@H]2[C@H]3C(=O)C=C4[C@@]5(C)C=C(C#N)C(=O)C(C)(C)[C@@H]5CC[C@@]4(C)[C@]3(C)CC[C@@]2(CN)CC[C@H]1C [Compound T21] | 14.7 ± 1.3 | 1.27 ± 0.045 | 14.7 ± 1.3 | –
25.8 ± 9.3 | 9.8 ± 5.7 fold | 25.8 ± 9.3 | – | C[C@@H]1[C@H]2[C@H]3C(=O)C=C4[C@@]5(C)C=C(C#N)C(=O)C(C)(C)[C@@H]5CC[C@@]4(C)[C@]3(C)CC[C@@]2(CNCCO)CC[C@H]1C [Compound T40] | 16.1 ± 1.5 | 1.2 ± 0.2 | 16.1 ± 1.5 | –
3.58 ± 2.16 | 0.94 ± 0.14 fold | – | – | CC(=O)NC[C@]12CC[C@@H](C)[C@H](C)[C@H]1[C@H]1C(=O)C=C3[C@@]4(C)C=C(C#N)C(=O)C(C)(C)[C@@H]4CC[C@@]3(C)[C@]1(C)CC2 [Compound T22] | 2.99 ± 1.62 | 0.244 ± 0.080 | – | –
19.1 ± 4.9 | 12.6 ± 1.9 fold | – | – | CNC(=O)CC[C@]12CC[C@@H](C)[C@H](C)[C@H]1[C@H]1C(=O)C[C@@H]3[C@@]4(C)C=C(C#N)C(=O)C(C)(C)[C@@H]4CC[C@@]3(C)[C@]1(C)CC2 [Compound T104] | 29.5 ± 2.5 | 3.15 ± 0.64 | – | –
4.21 ± 1.75 | 1.47 ± 0.32 fold | – | – | C[C@@H]1[C@H]2[C@H]3C(=O)C=C4[C@@]5(C)C=C(C#N)C(=O)C(C)(C)[C@@H]5CC[C@@]4(C)[C@]3(C)CC[C@@]2(CNC(=O)C(C)(F)F)CC[C@H]1C [Compound T29] | 3.88 ± 1.19 | 0.317 ± 0.086 | – | –
36.1 ± 13.8 | 20.20 ± 5.71 fold | – | – | C[C@@H]1[C@H]2[C@H]3C(=O)C=C4[C@@]5(C)C=C(C#N)C(=O)C(C)(C)[C@@H]5CC[C@@]4(C)[C@]3(C)CC[C@@]2(C(=O)NO)CC[C@H]1C [Compound T72] | 17.2 ± 7 | 1.71 ± 0.33 | – | –
52.4 ± 13.8 | 36.7 ± 17^ fold | – | – | C[C@@H]1[C@H]2[C@H]3C(=O)C[C@@H]4[C@@]5(C)C=C(C#N)C(=O)C(C)(C)[C@@H]5CC[C@@]4(C)[C@]3(C)CC[C@@]2(CCC(=O)N2CCC2)CC[C@H]1C [Compound T105] | 103 ± 37 | 10.7 ± 3.3 | – | –
8.74 ± 2.77 | 4.60 ± 2.34 fold | – | – | C[C@@H]1[C@H]2[C@H]3C(=O)C=C4[C@@]5(C)C=C(C#N)C(=O)C(C)(C)[C@@H]5CC[C@@]4(C)[C@]3(C)CC[C@@]2(CC(N)=O)CC[C@H]1C [Compound T90] | 3.71 ± 0.99 | 0.455 ± 0.131 | – | –
15 ± 5.8 | 5.83 ± 1.26 fold | – | – | C[C@@H]1[C@H]2[C@H]3C(=O)C=C4[C@@]5(C)C=C(C#N)C(=O)C(C)(C)[C@@H]5CC[C@@]4(C)[C@]3(C)CC[C@@]2(NC(=O)C(C)(F)F)CC[C@H]1C [Compound T17] | 22.9 ± 2.6 | 1.92 ± 0.74 | – | –
5.12 ± 1.21 | 1.33 ± 0.30 fold | – | – | COC(=O)NC[C@]12CC[C@@H](C)[C@H](C)[C@H]1[C@H]1C(=O)C=C3[C@@]4(C)C=C(C#N)C(=O)C(C)(C)[C@@H]4CC[C@@]3(C)[C@]1(C)CC2 [Compound T30] | 3.29 ± 0.61 | 0.27 ± 0.06 | – | –
